Molecules are shown by their SMILES.

These results are taken from patent US20140309280A1, “ASSAYS FOR MICRO-RNA-182 AS A BIOMARKER FOR MUSCLE ATROPHY AND THERAPEUTIC APPLICATIONS” (EMORY UNIVERSITY, priority 2013, published 2014).

The subject of one assay is gastrocnemius muscle. Kind of assay: Streptozotocin diabetes model of muscle atrophy: FoxO3 mRNA and miR-182 in gastrocnemius muscle. Type of assay: in vivo. The following applies: rats, STZ 125 mg/kg single intravenous injection, third day; for decrease of miR-182 in muscle: vs controls. The procedure:
(§1) FoxO3 mRNA (Panels A and C) and miR-182 (Panels B and D) were measured in either cells treated with Dex (1 μM) for 6 h (Panels A and B) or in gastrocnemius muscles of either control or streptozotocin-injected, acutely diabetic rats (Panels C and D). Results are reported as the mean±SEM of the fold-change of the respective control values.
Whether there is a similar relationship between FoxO3 and miR-182 expression was investigated in vivo in skeletal muscle during atrophy. STZ-induced diabetes mellitus causes muscle atrophy and responses (e.g., increased atrogin-1 expression) that are consistent with FoxO3 activation. Therefore, FoxO3 expression was evaluated during STZ-induced diabetes mellitus by measuring FoxO3 mRNA. FoxO3 mRNA was increased 75% (FIG. 2D) whereas the level of miR-182 was decreased 43% (P<0.05) (FIG. 2D).
Male rats (˜150 gm) received a single intravenous injection of STZ (125 mg/kg) in citrate buffer. STZ-injected and control rats were pair-fed and on the third day after injection the animals were anesthetized, and the gastrocnemius muscle was harvested. Food was withheld during the night before the tissue harvest to avoid the confounding influences of variable food intake on skeletal muscle protein metabolism. All animal studies were approved by the Emory Institutional Animal Care and Use Committee (IACUC).

The subject of assay [1] is C2C12 myotubes. The assay can be described thus: FoxO3 mRNA and intracellular miR-182 in C2C12 myotubes treated with Dex to induce atrophy. The assay is classed as cell-based, Mouse. The following applies: Dex 1 μM, 6 hours. The procedure:
as §1
To test this, C2C12 myotubes were treated with dexamethasone (Dex), a synthetic glucocorticoid, which induces atrophy, in part, by increasing FoxO3 activity in C2C12 myotubes. […] Simultaneously, the amount of intracellular miR-182 decreased 44% (FIG. 2B).
Mouse C2C12 myoblasts (American Type Culture Collection, Manassas, Va.) were cultured in growth media [Dulbecco modified Eagle medium plus 10% fetal bovine serum (Atlanta Biologicals, Lawrenceville, Ga.) and 1% penicillin and streptomycin (Invitrogen, Carlsbad, Calif.)] and studied between passage 3 and 7. Myoblasts were grown to ˜95% confluence in a 6-well plate and then differentiated into myotubes by replacing growth media with differentiation media (DMEM supplemented with 2% fetal bovine serum and 1% PS) for 3 days. In some experiments, myotubes were treated with 1 μM Dex for 6 hours before being harvested.

The subject of assay [2] is C2C12 myotubes. Kind of assay: miR-182 in media exosomes released from C2C12 myotubes after Dex. The following applies: Dex 6 h. The assay is classed as cell-based, Mouse. The procedure: Fresh differentiation media containing 100 nM Dex or vehicle was added to myotubes for 6 h. Afterwards, RNA was prepared from isolated media exosomes and miR-182, along U6 controls, was measured.
One mechanism by which microRNAs are protected from degradation is through incorporation into protective exosomes. This has led some to propose that the relative abundance patterns of microRNAs in various tissues and fluids as well as exosomes and other microvesicles are a reflection of underlying pathophysiological processes. Dex administration enhances the exosomal packaging and release of two atrophy-related microRNAs (miR-1 and miR-23a) into the media of C2C12 myotubes. This led us to test whether miR-182 is incorporated into exosomes that are released from myotubes. The amount of miR-182 in exosomes, normalized to U6 small nuclear RNA, is increased 95% in exosomes following Dex treatment to myotubes (FIG. 4). […]
To quantify exosomal microRNA, exosome-associated RNA, including microRNA, was isolated using a urine exosome RNA isolation kit (Norgen Biotek, Thorolod, ON, Canada) according to the manufacturer's instructions for isolating RNA from extracellular fluids. Subsequent quantitative PCR (qPCR) was performed.

In the case of `CN(N=O)C(=O)N[C@H]1C(O)O[C@H](CO)[C@@H](O)[C@@H]1O` (mixture of isomers) [streptozotocin], the “decrease of miR-182 in muscle” value with gastrocnemius muscle (P<0.05) turned out to be 44%; in the assay on gastrocnemius muscle (P<0.05, listed as STZ) it was 43%. Further, in the assay with gastrocnemius muscle (vs pair-fed controls), the “increase of FoxO3 mRNA in muscle” value was 75%.

Regarding `C[C@@H]1C[C@H]2[C@@H]3CCC4=CC(=O)C=C[C@]4(C)[C@@]3(F)[C@@H](O)C[C@]2(C)[C@@]1(O)C(=O)CO` [Dexamethasone, dexamethasone], the results for the “decrease of intracellular miR-182” value in the assay with C2C12 myotubes [1] and in the assay with C2C12 myotubes [1] (listed as dexamethasone) were 63% and 44%, respectively. The “increase of FoxO3 mRNA” value in the assay on C2C12 myotubes [1] turned out to be 133%. In addition, in the assay with C2C12 myotubes [2], the “increase of miR-182 in exosomes, normalized to U6 small nuclear RNA” value worked out at 95%.
